Here are results for five compounds from article PMC8745505, “In Vitro Investigation of Binding Interactions between Albumin–Gliclazide Model and Typical Hypotensive Drugs” (International Journal of Molecular Sciences, 2021).

Where “and” joins values, the source holds several entries; their conditions need not be identical. Identical values can stand only once. Counter-ions that a name gives are not always drawn. Like-named read-outs stand apart in the source and are kept apart here.

Data set [1] deals with T1, bovine serum albumin (BSA) (Bos taurus, UniProt P02769). The conditions noted are these: for Stern–Volmer quenching constant KSV: GLICL as quencher 0–14 µM, DRUG 8 µM (DRUG:BSA 4:1), λex 280 nm. The procedure:
(§1) Bovine serum albumin (≥96%) was used to prepare 1.2 mM stock solution in PBS (pH 7.4). […] The concentration of BSA was controlled by the spectrophotometric method at 280 nm (with a molar coefficient of 43,824 cm^−1 M^−1). […] Simultaneously, a control sample containing BSA solution without any ligands was prepared. Measurements were performed in triplicate. All reagents were received from Sigma-Aldrich (St. Luis, MO, USA).
Fluorescence intensities of ternary models (BSA–DRUG–GLICL) were recorded using a Jasco FP-8200 spectrofluorometer with Peltier-thermo Cell Holder ETC-814 (Tokyo, Japan) at excitation wavelength of 280 nm, equipped with 1.0 cm quartz cells. The slit widths were set at 5 nm. The measurements were conducted at two different temperatures, 298 and 310 K. The fluorescence spectra of the drugs alone were also recorded. Each spectrum background was corrected by subtracting the spectrum of the phosphate buffer as a blank sample.
According to the assumption that fluorophores in a protein molecule may differ in accessibility, modified Stern–Volmer Equation (2) was used for the construction of plots and to calculate quenching constants:(2) F0/F0−F=1/fa·KSV·Q+1/fa where F0 and F are the fluorescence intensities in the absence and presence of gliclazide (GLICL), respectively; fa is the fraction of the initial fluorescence accessible to the quencher; Ksv is the Stern–Volmer quenching constant; and Q is the concentration of the quencher (GLICL).
The binding parameters (binding constant and number of binding sites) were obtained from double-log modified Stern–Volmer Equation (3):(3) logF0−F/F=logKa+n·logQ where F0 and F are the fluorescence intensities in the absence and presence of the quencher (gliclazide), respectively; Ka is the binding constant of the complex BSA–DRUG–GLICL, expressed as M^−1; n is the number of bound gliclazide molecules; and Q is the concentration of the quencher (GLICL).

The target in data set [2] is T1, bovine serum albumin (BSA). How it is done: as §1
The circular dichroism spectra data were recorded using JASCO J-1500 spectropolarimeter (Tokyo, Japan) in the range of 205–250 nm, with a scanning speed of 200 nm/min and with 0.1 step resolution using a quartz cuvette with a length path of 0.1 cm. The measurements were conducted for binary (BSA–DRUG) and ternary (BSA–DRUG–GLICL) models to provide information about the influence of ligand binding on the protein structure. The baseline was corrected using a phosphate buffer, pH = 7.4.
Mean residue ellipticity (MRE) was calculated according to the following Equation (7) and expressed in deg cm^2 dmol^−1:(7) MRE=Θobs/cp·n·l·10 where Θobs is the observed CD (in mdegree), Cp is the molar concentration of BSA, n is the number of amino acid residues (583 for BSA), and l is the path length of the cuvette (0.1 cm).
The α-helical contents of free and modified BSA were calculated from MRE values at 208 nm with Equation (8):(8) α-helix (%)=MRE208−4000/33,000−4000 ·100 where MRE208 is the observed MRE value at 208 nm, 4000 is the MRE of the β-form and random coil conformation cross at 208 nm, and 33,000 is the MRE value of the pure α-helix of BSA at 208 nm.

In data set [3] the test system is plasma protein. The conditions noted are these: cited from earlier work; for Binding to plasma protein: general statement, no reference given.
Data set [4] has as its target T1, bovine serum albumin (BSA). How it is done:
as §1
The thermodynamic analysis of the interaction between albumin and GLICL was performed on measurements at three temperatures (298, 303, 310 K) based on the van’t Hoff Equations (4)–(6):(4) ΔG=−R·T·lnKa (5) ΔG=ΔH−T·ΔS (6) lnKa=−ΔH/R·T+ΔS/R where ΔG is the free energy change, ΔH is the enthalpy change, ΔS is the entropy change, R is the universal gas constant, and T is the temperature.
The source holds these as a separate data set.

Data set [5] concerns albumin. The conditions noted are these: cited from earlier work.
Data set [6] concerns BSA. On the set-up: method as in PMID 28888191. The conditions noted are these: no additional ligand, cited from earlier work.
The mark [7] stands for this setting: BSA–GLICL complex in presence of DRUG, 298 303 310 K.

T1 sequence (P02769 25-607): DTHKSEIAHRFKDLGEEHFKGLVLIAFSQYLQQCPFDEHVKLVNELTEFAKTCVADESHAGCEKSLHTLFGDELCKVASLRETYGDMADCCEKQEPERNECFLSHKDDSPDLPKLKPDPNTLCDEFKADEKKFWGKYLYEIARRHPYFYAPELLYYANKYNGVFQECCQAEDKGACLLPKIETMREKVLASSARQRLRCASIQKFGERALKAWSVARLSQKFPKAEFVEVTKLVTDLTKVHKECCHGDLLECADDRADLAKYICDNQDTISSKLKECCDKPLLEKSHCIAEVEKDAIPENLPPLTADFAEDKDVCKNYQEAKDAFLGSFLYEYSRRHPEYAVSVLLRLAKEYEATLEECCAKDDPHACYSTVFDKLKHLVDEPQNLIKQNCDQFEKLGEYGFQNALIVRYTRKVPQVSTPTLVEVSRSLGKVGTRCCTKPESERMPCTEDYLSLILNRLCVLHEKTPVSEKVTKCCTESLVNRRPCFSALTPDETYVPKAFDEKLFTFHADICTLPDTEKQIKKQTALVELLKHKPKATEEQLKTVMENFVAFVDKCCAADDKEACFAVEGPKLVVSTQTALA

For `CCOC(=O)C1=C(COCCN)NC(C)=C(C(=O)OC)C1c1ccccc1Cl` (stereo not drawn) [AML, amlodipine besylate], in data set [1], the “Ka, association constant of BSA–GLICL complex in presence of DRUG” value (from here on “Ka, association constant”) is 1.15 ± 0.01 10^4 M^−1; the “n, number of binding sites (bound gliclazide molecules)” value is 0.93 ± 0.01 and 0.97 ± 0.01. Further, in data set [2], the “Decreased α-Helix (%)” value is listed as 0.7%. Besides, in data set [3], the “Binding to plasma protein” value was “over 95%”. Also, the ΔS in data set [4] is 100.32 J/mol K.

Regarding `CC(C)NCC(O)COc1ccc(CC(N)=O)cc1` (stereo not drawn) [ATN, atenolol], the “Association constant, site 1 of albumin” value in data set [5] was “approx. 10^3 M^−1”.

With `Cc1ccc(S(=O)(=O)NC(=O)NN2CC3CCCC3C2)cc1` (stereo not drawn) [GLICL, gliclazide], the Plasma protein binding result in data set [3] was “up to 94%”. For the same compound, the results for the “Ka of BSA–GLICL (binary model)” value in data set [6] (298 K) and in data set [6] (310 K) were 3.80 10^4 M^−1 and 3.76 10^4 M^−1, respectively.

`CCOC(=O)[C@H](CCc1ccccc1)N[C@@H](C)C(=O)N1Cc2ccccc2C[C@H]1C(=O)O` [QUI, quinapril hydrochloride]: the “n, number of binding sites (bound gliclazide molecules)” value worked out at 1.04 ± 0.01 in data set [1] (BSA–DRUG–GLICL, 298 K) and 1.03 ± 0.03 in data set [1] (BSA–DRUG–GLICL, 310 K). For the same compound, the “Ka, association constant” value was 1.65 ± 0.02 10^4 M^−1 in data set [1] (BSA–DRUG–GLICL, DRUG:BSA 4:1, 298 K) and 2.09 ± 0.07 10^4 M^−1 in data set [1] (BSA–DRUG–GLICL, DRUG:BSA 4:1, 310 K). Further, the “Stern–Volmer quenching constant KSV” value in data set [1] (BSA–DRUG–GLICL, 298 K) is recorded as 2.23 ± 0.01 10^4 M^−1; in data set [1] (BSA–DRUG–GLICL, 310 K), 0.96 ± 0.16 10^4 M^−1. Further, the “Mechanism of quenching of BSA fluorescence by GLICL in presence of DRUG” value in data set [1] (from temperature dependence of KSV, 298 vs 310 K) is recorded as “static mechanism”. Also, the “Change of Ka of BSA–GLICL complex in comparison to the binary model” value in data set [1] (ternary vs binary model (binary Ka from ref 24)) is “more than a twofold decrease”. Moreover, the “α-Helix Content (%)” value in data set [2] (binary BSA–DRUG, molar ratio 1:4, 310 K (BSA alone 68.7)) is listed as 67.6%; in data set [2] (ternary BSA–DRUG–GLICL, BSA:Ligand 1:4, BSA:GLICL 1:7, 310 K (BSA alone 68.7)), 63.1%. The “Decreased α-Helix (%)” value in data set [2] (binary BSA–DRUG, molar ratio 1:4, 310 K, vs BSA alone) is recorded as 1.1%; in data set [2] (ternary BSA–DRUG–GLICL, BSA:Ligand 1:4, BSA:GLICL 1:7, 310 K, vs BSA alone), 5.6%. In addition, in data set [3], the “Binding to plasma protein” value is listed as “over 95%”. The ΔH in data set [4] (setting [7]) was 3.604 kcal/mol. Moreover, the ΔS in data set [4] (setting [7]) worked out at 131.36 J/mol K. Besides, the ΔG in data set [4] (BSA–GLICL complex in presence of DRUG, 298 K) was -5.753 kcal/mol; in data set [4] (BSA–GLICL complex in presence of DRUG, 303 K), -5.908 kcal/mol; in data set [4] (BSA–GLICL complex in presence of DRUG, 310 K) it was -6.128 kcal/mol.

For the compound `CCCCC(=O)N(Cc1ccc(-c2ccccc2-c2nnn[nH]2)cc1)[C@H](C(=O)O)C(C)C` [VAL, valsartan], in data set [1], the “Ka, association constant” value is 0.12 ± 0.04 10^4 M^−1; the “Mechanism of quenching of BSA fluorescence by GLICL in presence of DRUG” value is recorded as “static mechanism”; the “n, number of binding sites (bound gliclazide molecules)” value is 0.87 ± 0.01 and 0.74 ± 0.02. In data set [2], the “Decreased α-Helix (%)” value is 1.0% and 3.5%; the “α-Helix Content (%)” value was 67.7% and 65.2%. Also, the Protein binding in data set [3] is listed as 95%. In addition, in data set [4], the ΔG was -5.21 kcal/mol, the ΔH worked out at 23.924 kcal/mol and the ΔS amounted to 393.25 J/mol K.
